The source made the active and inactive calls.
What was measured:
[1] = fluconazole-exposed Candida albicans growth modulators – fluorescence, retest, confirmation (AID 2467); format: functional, cell-based
[2] = NIH-3T3 fibroblast cytotoxicity, dose response, cytotoxicity control, cell-based, fluorescence, Alamar Blue, secondary assay (AID 2327); format: functional;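 further: NIH-3T3 mouse fibroblasts cultured with fluconazole at 8 µg/mL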
[3] = target: Cytochrome P450 2D6 (Homo sapiens, UniProt P10635);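 further: CYP2D6 member of a cytochrome P450 panel assay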
[4] = target: Cytochrome P450 2C9 (Homo sapiens, UniProt P11712)
[5] = target: Cytochrome P450 2C19 (Homo sapiens, UniProt P33261); assay: Cytochrome panel assay with activity outcomes. Panel member name: p450-cyp2c19 Compounds with AC50 equal or less than 10 uM are considered active; format: functional; settings: read-out: AC50
[6] = microbe, parasite or virus in culture; format: functional; settings: Mycobacterium tuberculosis
[7] = target: T1, Heat shock factor protein 1 (Mus musculus, UniProt P38532); assay: enhancement of HSF1-driven luciferase signal – cell-based, NIH3T3, luminescence, dose retest, confirmation (AID 435004); format: functional;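 further: stress induced by proteasome inhibitor MG132 added 30 min after compound; luciferase reporter driven by HSF1 response element in NIH3T3 cells; actives raise luminescence as potentiators of the MG132 stress response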
T1 sequence (P38532 whole entry): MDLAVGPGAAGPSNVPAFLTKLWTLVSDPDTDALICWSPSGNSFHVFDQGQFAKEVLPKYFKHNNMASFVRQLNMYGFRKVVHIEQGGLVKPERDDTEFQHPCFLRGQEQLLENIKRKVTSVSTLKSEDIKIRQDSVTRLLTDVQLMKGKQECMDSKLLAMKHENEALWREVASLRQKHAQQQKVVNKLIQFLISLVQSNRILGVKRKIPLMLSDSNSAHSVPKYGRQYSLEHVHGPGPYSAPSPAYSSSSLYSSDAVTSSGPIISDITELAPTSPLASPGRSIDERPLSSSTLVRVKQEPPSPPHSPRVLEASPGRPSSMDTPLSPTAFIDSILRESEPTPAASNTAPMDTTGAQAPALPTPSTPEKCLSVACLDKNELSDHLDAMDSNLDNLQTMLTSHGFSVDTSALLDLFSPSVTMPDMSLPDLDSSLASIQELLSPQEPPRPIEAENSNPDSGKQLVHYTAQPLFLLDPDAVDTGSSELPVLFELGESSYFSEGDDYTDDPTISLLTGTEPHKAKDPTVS

[8] = viability of uninfected HEp-2 cells – cell-based, HTS, cytotoxicity control for RSV inhibitor project, dose response (AID 2410); format: functional; settings: human respiratory syncytial virus
[9] = target: FAD-linked sulfhydryl oxidase ALR (Homo sapiens, UniProt P55789); assay: ALR-catalysed DTT oxidation blockers – biochemical, H2O2 detection, luminescence, cherry-pick, dose response (AID 493248)
[10] = Luminescence Cell-Based Dose Retest to Confirm Inhibitors of Cancer Stem Cells. [Related pubchem assays (depositor defined):AID2717, AID2721]; format: functional; settings: Homo sapiens
[11] = NIH3T3 cell viability loss – ATP luminescence, mouse fibroblasts, counter-screen, dose response (AID 2010); format: functional, cell-based;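 further: cells exposed to compound for about 90 hours before reading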
[12] = Trypanosoma cruzi growth suppression in host cells – NIH3T3 host cells, beta-gal luminescence, confirmation (AID 2044); format: functional, cell-based;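 further: intracellular parasites grown in NIH/3T3 mouse fibroblasts as host cells; luminescent beta-galactosidase reporter signal from transgenic T. cruzi replicating inside host cells; inhibitors lower the luminescence signal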
[13] = tested on: INS1; assay: INS-1E survival protection against cytokine death – cell-based, luminescence, retest, dose response (AID 449756); format: functional; settings: Rattus norvegicus;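 further: cell death triggered by IL-1 beta plus TNF-alpha plus IFN-gamma mixture; protective hits raise ATP signal compared with cytokine alone wells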

Sequence of Cytochrome P450 2D6 (P10635 whole entry): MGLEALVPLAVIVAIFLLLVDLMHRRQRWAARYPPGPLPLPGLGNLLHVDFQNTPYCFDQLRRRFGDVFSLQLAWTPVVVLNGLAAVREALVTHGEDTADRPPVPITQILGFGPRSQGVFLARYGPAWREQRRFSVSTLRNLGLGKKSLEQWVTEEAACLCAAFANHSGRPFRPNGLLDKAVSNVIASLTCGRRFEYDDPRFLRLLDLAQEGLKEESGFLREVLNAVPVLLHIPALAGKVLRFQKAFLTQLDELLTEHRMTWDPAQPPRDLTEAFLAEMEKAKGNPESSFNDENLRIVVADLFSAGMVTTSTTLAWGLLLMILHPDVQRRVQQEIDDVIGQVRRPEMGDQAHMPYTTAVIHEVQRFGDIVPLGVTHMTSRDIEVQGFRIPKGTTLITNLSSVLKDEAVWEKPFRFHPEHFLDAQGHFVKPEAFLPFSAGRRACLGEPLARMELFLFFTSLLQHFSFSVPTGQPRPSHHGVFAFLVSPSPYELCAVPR
Sequence of Cytochrome P450 2C9 (P11712 whole entry): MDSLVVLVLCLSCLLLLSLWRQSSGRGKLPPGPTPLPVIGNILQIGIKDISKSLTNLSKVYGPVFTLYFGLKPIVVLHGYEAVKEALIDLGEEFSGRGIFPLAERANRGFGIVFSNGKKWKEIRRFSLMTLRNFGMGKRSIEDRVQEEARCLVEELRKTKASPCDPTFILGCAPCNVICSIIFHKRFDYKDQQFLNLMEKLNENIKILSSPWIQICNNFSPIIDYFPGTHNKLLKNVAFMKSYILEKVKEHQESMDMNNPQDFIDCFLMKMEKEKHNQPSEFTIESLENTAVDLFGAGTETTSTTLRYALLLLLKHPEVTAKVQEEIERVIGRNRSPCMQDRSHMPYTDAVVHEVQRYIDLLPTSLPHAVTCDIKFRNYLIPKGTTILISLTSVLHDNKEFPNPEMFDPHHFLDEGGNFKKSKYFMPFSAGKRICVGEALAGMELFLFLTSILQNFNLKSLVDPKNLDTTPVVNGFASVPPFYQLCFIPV
Sequence of FAD-linked sulfhydryl oxidase ALR (P55789 whole entry): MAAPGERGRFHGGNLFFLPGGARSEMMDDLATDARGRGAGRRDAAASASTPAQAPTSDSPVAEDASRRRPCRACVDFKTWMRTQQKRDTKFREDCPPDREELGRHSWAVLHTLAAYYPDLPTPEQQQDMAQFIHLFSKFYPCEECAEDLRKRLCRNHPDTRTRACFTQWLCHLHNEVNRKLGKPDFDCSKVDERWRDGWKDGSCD
Sequence of Cytochrome P450 2C19 (P33261 whole entry): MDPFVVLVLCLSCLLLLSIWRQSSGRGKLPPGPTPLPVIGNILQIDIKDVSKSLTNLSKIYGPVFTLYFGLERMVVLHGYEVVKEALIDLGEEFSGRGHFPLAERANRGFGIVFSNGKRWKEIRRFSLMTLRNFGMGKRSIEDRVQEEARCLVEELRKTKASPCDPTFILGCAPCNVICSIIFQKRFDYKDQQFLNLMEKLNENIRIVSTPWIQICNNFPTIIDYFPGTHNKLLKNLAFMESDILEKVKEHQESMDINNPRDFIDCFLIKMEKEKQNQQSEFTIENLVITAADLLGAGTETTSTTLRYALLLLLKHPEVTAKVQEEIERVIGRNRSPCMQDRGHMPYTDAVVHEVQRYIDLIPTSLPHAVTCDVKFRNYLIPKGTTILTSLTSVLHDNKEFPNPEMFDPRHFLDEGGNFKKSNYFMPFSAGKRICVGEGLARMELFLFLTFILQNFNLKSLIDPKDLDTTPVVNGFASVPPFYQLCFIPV

SMILES	EC50 [1]	EC50 [2]	CC50 [6]	other results
O=[N+]([O-])c1ccc(C2[C@H]3C(c4ccccc4)=NC4(CCCC4)N23)cc1 (some centres undefined)	> 38 µM (not active)	> 150 µM (inactive)		
COc1ccc(-c2cc(-c3c(O)c(OC)c4occc4c3OC)[nH]n2)cc1OC	> 38 µM (not active)	> 160 µM (inactive)		AC50 [3]: 25.1 µM (inconclusive); AC50 [4]: 39.8 µM (inconclusive)
Cn1c(=O)cc(OCCCC(=O)Nc2cccnc2)c2ccccc21	> 38 µM (not active)	> 160 µM (inactive)		AC50 [3]: 10 µM (inconclusive); AC50 [5]: 20 µM (inconclusive)
COCCCNC(=O)/C(C#N)=C/c1c(N2CCN(c3cccc(Cl)c3)CC2)nc2c(C)cccn2c1=O			> 40 µM (active)	
COc1ccccc1N1CCN(CCCCOc2cccc3ccccc23)CC1			> 40 µM (active)	
CCC(O)CC(C(=O)NNc1ccccc1)C(=O)NNc1ccccc1 (centres undefined)	> 38 µM (not active)	20.6 µM (active)		
CN(CC(=O)Nc1ccc(F)c(F)c1F)c1cnccn1			23.5 µM (active)	
CC(=O)COc1cccc2ccc(/C=C/c3ccc(Br)s3)nc12				EC50 [7]: 60.9 µM (active); CC50 [8]: 45.4 µM (active)
O=C(NNc1cccc(Cl)c1)c1cccnc1Cl	> 38 µM (not active)	24.8 µM (active)		AC50 [9]: 4.14 µM (active)
CC(=O)n1c2c(c3ccccc31)OC(N)=C(C#N)C2c1cccc(Cl)c1Cl (centres undefined)				EC50 [7]: 42.4 µM (active); AC50 [10]: 1.57 µM (active)
COc1ccccc1-c1cc(C(=O)NC2CCN(C)CC2)c2ccc(Cl)c(C)c2n1			7.01 µM (active)	EC50 [11]: > 60 µM (not active); EC50 [12]: 1.4 µM (active)
O=C1C(=CNCCN2CCNCC2)C(=O)N(C2CCCCC2)C(=O)N1C1CCCCC1			33.5 µM (active)	
COCCNC(=O)NC12CC3CC(CC(C3)C1)C2	> 38 µM (not active)	> 160 µM (inconclusive)		
O=C(NCCc1ccccc1)[C@@H]1CC=C[C@@H]2CCN(Cc3ccc(Cl)c(Cl)c3)C(=O)[C@@H]21			34.4 µM (active)	AC50 [13]: 6.35 µM (active)
Cc1ccc(C)c(CN2C(=O)COc3ccccc32)c1				EC50 [7]: > 260 µM (inactive)
CCc1ccccc1N=C(S)NNC(=O)c1ccccc1Cl	1.93 µM (active)	> 150 µM (inactive)		
CCCCNC(=O)/C(=C\c1ccc([N+](=O)[O-])o1)NC(=O)c1ccccc1	0.265 µM (active)	> 150 µM (inactive)		EC50 [11]: > 60 µM (inconclusive); EC50 [12]: 0.863 µM (active)
C/C(=N/NC(=O)c1ccccc1O)c1ccc(N2C(=O)C3CCCCC3C2=O)cc1 (centres undefined)	> 38 µM (not active)	> 160 µM (inactive)		

From ChEMBL document CHEMBL1201862, “PubChem BioAssay data set” (2004)
